Measured values taken from ChEMBL document CHEMBL1125987, “C8-substituted derivatives of 2-(dipropylamino)tetralin: Palladium-catalyzed synthesis and interactions with 5-HT1A-receptors” (Bioorg Med Chem Lett, 1991).

Assays:
[1] = biological target: T1, 5-hydroxytryptamine receptor 1A (Rattus norvegicus, UniProt P19327); experiment: (§1) Inhibition of [3H]- 8-OH-DPAT binding to 5-HT1A-receptor from rat cerebral cortex membranes; assay type: cell membranes, Membrane
T1 sequence (P19327 whole entry): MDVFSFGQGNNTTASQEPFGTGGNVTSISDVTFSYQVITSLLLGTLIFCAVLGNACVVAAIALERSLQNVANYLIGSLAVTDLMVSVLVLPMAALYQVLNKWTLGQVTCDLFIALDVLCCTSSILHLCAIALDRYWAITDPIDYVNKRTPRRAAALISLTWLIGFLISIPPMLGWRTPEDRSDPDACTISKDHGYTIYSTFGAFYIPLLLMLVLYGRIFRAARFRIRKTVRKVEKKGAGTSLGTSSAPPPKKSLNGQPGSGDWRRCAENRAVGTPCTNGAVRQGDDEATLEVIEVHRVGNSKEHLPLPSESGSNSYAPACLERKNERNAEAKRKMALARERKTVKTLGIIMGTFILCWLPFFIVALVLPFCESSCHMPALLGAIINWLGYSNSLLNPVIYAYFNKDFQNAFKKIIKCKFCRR

[2] = biological target: T2, 5-hydroxytryptamine receptor 1A (Rattus norvegicus) (UniProt P19327); experiment: as §1; assay type: cell membranes; settings: Membrane
T2 sequence (whole entry): T1 sequence (P19327 whole entry)

Rattus norvegicus [3] = experiment: Agonism to 5-HT1A receptor was measured by the accumulation of DOPA in limbic region of non pretreated rats subcutaneously at 0.32 um/Kg; assay type: functional, Limbic system
Rattus norvegicus [4] = experiment: (§2) In vivo inhibition of L-uM/Kg; assay type: functional
Rattus norvegicus [5] = experiment: Agonism to 5-HT1A receptor was measured by the accumulation of DOPA in striatum of non pretreated rats subcutaneously at 0.32 um/Kg; assay type: functional
Rattus norvegicus [6] = experiment: as §2; assay type: functional; remark: listed apart in the source
[7] = biological target: T2, 5-hydroxytryptamine receptor 1A (Rattus norvegicus); experiment: Compound evaluated for inhibiting the binding of [3H]- 8-OH-DPAT to 5-HT1A-receptor from cerebral cortex membranes of rat measured as Hill coefficient; assay type: tissue-based; settings: Membrane

| Compound | Ki [1] [nM] | Hill coefficient [2] | Activity (Rattus norvegicus [3]) | Activity (Rattus norvegicus [4]) | Activity (Rattus norvegicus [5]) | Activity (Rattus norvegicus [6]) | Hill coefficient [7] |
| --- | --- | --- | --- | --- | --- | --- | --- |
| CCCN(CCC)[C@@H]1CCc2cccc(OC)c2C1 | 1.5 | 1.11 | – | – | – | – | – |
| CCCN(CCC)[C@@H]1CCc2cccc(C(C)=O)c2C1 | 1.8 | – | 399 ng (g of tissue)-1 | 111 ng (g of tissue)-1 | 1101 ng (g of tissue)-1 | 62.1 ng (g of tissue)-1 | 0.96 |
| CCCN(CCC)[C@@H]1CCc2cccc(-c3ccccc3)c2C1 | 7.7 | 1 | – | – | – | – | – |
| CCCN(CCC)[C@H]1CCc2cccc(OC)c2C1 | 2.8 | 0.96 | – | – | – | – | – |
| CCCN(CCC)[C@H]1CCc2cccc(C)c2C1 | 62 | 1.04 | – | – | – | – | – |
| CCCN(CCC)[C@@H]1CCc2cccc(OS(=O)(=O)C(F)(F)F)c2C1 | 3.8 | 0.79 | – | – | – | – | – |
| CCCN(CCC)[C@@H]1CCc2cccc(O)c2C1 | – | 0.97 | 414 ng (g of tissue)-1 | 102 ng (g of tissue)-1 | 1280 ng (g of tissue)-1 | 51.2 ng (g of tissue)-1 | – |
| CCCN(CCC)[C@H]1CCc2cccc(OS(=O)(=O)C(F)(F)F)c2C1 | 9.5 | 0.83 | – | – | – | – | – |
| CCCN(CCC)[C@H]1CCc2cccc(O)c2C1 | – | 0.86 | 445 ng (g of tissue)-1 | 112 ng (g of tissue)-1 | 1136 ng (g of tissue)-1 | 55.8 ng (g of tissue)-1 | – |
| CCCN(CCC)C1CCc2cccc(C(=O)O)c2C1 (racemic) | > 300 | – | – | – | – | – | – |
| CCCN(CCC)[C@@H]1CCc2cccc(C)c2C1 | 34 | 1.13 | – | – | – | – | – |
| CCCN(CCC)[C@H]1CCc2ccccc2C1 | 56 | 0.83 | – | – | – | – | – |
| CCCN(CCC)[C@H]1CCc2cccc(-c3ccccc3)c2C1 | 24 | 1.04 | – | – | – | – | – |
| CCCN(CCC)[C@@H]1CCc2ccccc2C1 | 17 | 0.85 | – | – | – | – | – |
| CCCN(CCC)[C@@H]1CCc2cccc(C(=O)OC)c2C1 | 4.3 | – | – | – | – | – | 0.9 |
| CCCN(CCC)[C@H]1CCc2cccc(C(C)=O)c2C1 | 0.7 | 0.71 | 365 ng (g of tissue)-1 | 89 ng (g of tissue)-1 | 1098 ng (g of tissue)-1 | 58.5 ng (g of tissue)-1 | – |
| CCCN(CCC)[C@H]1CCc2cccc(C(=O)OC)c2C1 | 1.7 | – | – | – | – | – | 1.01 |
